# Laboratory results: US20180271847A1, “TREATMENT OF ACUTE TRAUMATIC INJURY” (priority 2015, published 2018)
# Key:
# [1] = tested on: glial fibrillary acidic protein (GFAP); test: GFAP labeling (scarring marker) in spinal cord sections after contusion injury; type: in vivo; conditions: rats with spinal cord contusion, compared with saline
# From the text: FIG. 6A and FIG. 6B are images illustrating a section of spinal cords of placebo (saline) (FIG. 6A) and 4-AP (FIG. 6B) treated animals labeled with antibody against glial fibrillary acidic protein (GFAP), which is a marker of scarring in all regions of the central nervous system, (bright spots in FIG. 6A) and DAPI (bright spots in FIG. 6B). indicates the lesion edge. The size bar represents 100 μm. […] These outcomes provide further evidence that 4-AP administration is regulating a response to traumatic injury that is of relevance to traumatic injury in all tissues.
# FIGS. 6A-6B further examines expression of a protein called glial fibrillary acidic protein (GFAP), which is one of the markers of scarring in all regions of the central nervous system. […] These outcomes provide further evidence that 4-AP administration is regulating a response to traumatic injury that is of relevance to traumatic injury in all tissues.
# skeletal muscle atrophy [2] = test: Skeletal muscle atrophy after complete denervation (nerve transection); type: in vivo
# Method: Treatment with 4AP decreased muscle expression of MuRF-1 (FIG. 11A) and myogenin (FIG. 11B) (both normalized to GADPH) after complete denervation. […] Thus, the beneficial effects of 4AP on parameters of atrophy were not dependent on restoration of normal motor usage. *=p<0.05; ** p<0.01.
# In this example, the nerve innovating the extensor digitorum longus muscle was completely transected 15-25 mm distant from the muscle. 4-AP was then administered during the acute and subacute post-injury periods.
# P-zero myelin protein = test: P0 myelin protein in tissue lysates after sciatic nerve crush; type: in vivo; conditions: mice, tissue lysates at 21 days post-injury/treatment
# skeletal muscle atrophy [3] = test: Skeletal muscle atrophy after sciatic nerve crush injury; type: in vivo, mouse
# From the text: FIGS. 10A-10F show the rescue of skeletal muscle from atrophy induced by crush injury to the sciatic nerve by daily administration of clinically relevant dosages of 4-AP.
# These stem cells are believed to play roles in preventing and/or repairing muscle atrophy.
# In particular, 4-AP was applied as a means of preventing skeletal muscle atrophy following damage to the nerve innervating muscles of limb, as illustrated in FIG. 10. In these experiments, the sciatic nerve of the mouse was crushed in such a manner that not all axons were severed. In these injuries, skeletal muscle atrophy is a significant consequence, just as it is in patients with similar injuries. This type of injury can be a problem for many reasons, including the fact that if atrophy is not stopped or reversed within a relatively short period of time, the damage done may become irreversible.
# [4] = tested on: traumatic damage to the peripheral nervous system; test: Recovery of function after traumatic damage to the peripheral nervous system; type: in vivo; conditions: following traumatic damage to the peripheral nervous system
# [5] = tested on: contusion injuries to the spinal cord; test: Behavioral analysis of motor function after spinal cord contusion injury; type: in vivo, Long Evans rats; conditions: rats
# Method: Experiments were initiated with behavioral analysis of rats receiving contusion injuries to the spinal cord, which is one of the most widely studied of all experimental models of traumatic injury. 8-10 week old Long Evans rats (female) underwent laminectomy at thoracic vertebrae 9 and a 200 kilodyne impact was delivered to the spinal cord using an the Infinite Horizons impactor. Animals were allowed to recover on a heated pad and then treatment was started 24 hours after surgery in order to determine whether a clinically useful window of opportunity for initiation of treatment exists for use of this intervention. Animals received 1 mg/kg 4-AP twice a day for seven days, then received 1 mg/kg 4-AP […] for the following seven days. After two weeks, the animals were taken off 4-AP entirely and allowed to continue for 2 weeks to test for stability of recovery.
# FIGS. 1-4 provide evidence of enhanced recovery of a variety of aspects of motor function. […] Of particular interest were observations that when rats were switched to once-a-day administration of 4-AP and all behavioral analyses were conducted at a time point when the 4-AP half-life in rats predicts that levels in vivo were far below those necessary to observe any effects on motor function, recovery of function was still seen at a time when active levels of 4-AP would not have been present. […] FIG. 2 provides information on the speed of the paw during its swing movement (i.e., stride length/swing time). […] FIG. 3 provides information on the distance between the outer toes (i.e., toe spread), a sensitive indicator of normal motor function in the foot itself. […] In contrast, rats treated with 4-AP show normal behavior beginning 10 days post-injury, and this behavior is maintained when drug treatment ends at day 14. FIG. 4 provides information on the length of the foot print, a sensitive indicator of normal motor function in the foot itself. […] In contrast, rats treated with 4-AP show normal behavior beginning 10 days post-injury, and this behavior is maintained when drug treatment ends at day 14. All improvements were durable when treatment was stopped at 2 weeks post-injury.
# Sox 9 = Sox 9 immunofluorescence in spinal cord sections after contusion injury; type: in vivo; conditions: rats with contusion injuries to the spinal cord, versus control
# From the text: FIG. 5A and FIG. 5B are images illustrating a section of control (FIG. 5A) and 4-AP (FIG. 5B) treated animals labeled with anti-Sox 9 (bright spots) and DAPI (darker grey). Arrows highlight the cells that were used to define the baseline threshold for Sox 9 immunofluorescence. Size bar represents 20 μm. FIG. 5C is a graph showing quantification of FIG. 5A and FIG. 5B using the threshold shown in A as baseline. N=3, *p=0.045 t-test.
# The ability of daily 4-AP administration to provide benefit at the tissue level was investigated, leading to the wholly unexpected discovery of effects of 4-AP that are relevant to traumatic injuries in a wide range of tissues. The first such observation came from examination of the expression of Sox 9, a transcription factor that is expressed in a wide range of tissues of the nervous system, other excitable tissues and tissues that are not considered to be excitable (including, for example, pancreas, lung, chondrocytes, cartilage, liver, breast, prostate, colorectal, intestine and testis). Among other roles, Sox 9 controls production and expression of chondroitin sulfate proteoglycan, a critical component of scar in many different tissues. […]
# [6] = after complete denervation, daily 4-AP
# [7] = mouse, sciatic nerve crush injury
# [8] = spinal cord contusion, 1 mg/kg 4-AP for 14 days, maintained after treatment ends at day 14
structure (smiles),measurement,setting,value
"Nc1ccncc1 [4-AP, 4-aminopyridine]","GFAP, marker of central nervous system scarring",[1],greatly decreased
same,muscle expression of MuRF-1 (normalized to GADPH),skeletal muscle atrophy [2]; [6],decreased
same,muscle expression of myogenin (normalized to GADPH),skeletal muscle atrophy [2]; [6],decreased
same,recovery of gait function,skeletal muscle atrophy [2]; denervated animals,did not show any recovery of gait function
same,more P0 protein in the lesion area than in nerves of vehicle-treated animals,P-zero myelin protein,61+/−15%
same,numbers of Pax7+ muscle stem cells,skeletal muscle atrophy [3]; both at 7 days and 14 days post nerve crush injury,increased the numbers of Pax7+ cells
same,muscle strength,"skeletal muscle atrophy [3]; mice, 7 days after nerve crush injury, daily 4-AP",greater muscle strength as compared with saline-treated mice
same,expression of MuRF-1 in muscle,skeletal muscle atrophy [3]; [7],decreases expression of MuRF-1
same,expression of myogenin in muscle,skeletal muscle atrophy [3]; [7],decreases expression of myogenin
same,muscle atrophy judged by cross-sectional size of muscle,"skeletal muscle atrophy [3]; mouse, sciatic nerve crush injury, daily 4-AP",decreases muscle atrophy
same,recovery of motor function and electrophysiological function,[4],more rapid recovery of motor function and electrophysiological function
same,"Basso, Beattie and Bresnahan (BBB) scores, recovery versus placebo (saline)","[5]; 200 kilodyne contusion at thoracic vertebrae 9, 1 mg/kg 4-AP twice a day for seven days then seven further days, started 24 hours after surgery",significant improvement over placebo (saline) treated rats as early as 3 days after treatment
same,length of the foot print: normal behavior beginning,[5]; [8],10 days post-injury
same,toe spread (distance between the outer toes): normal behavior beginning,[5]; [8],10 days post-injury
same,return to normal swing speed (stride length/swing time),"[5]; spinal cord contusion, 1 mg/kg 4-AP for 14 days, normal defined by sham surgery group, maintained after treatment ends at day 14",≤ 10 days post-injury
same,motor function after treatment was stopped 14 days after injury,"[5]; spinal cord contusion, 1 mg/kg 4-AP for 14 days, through the rest of the 28 days of analysis",durable improvements in motor function
same,expression of Sox9,Sox 9,greatly decrease the expression of Sox9
